For this assay, the system named is NL-RLuc virus. Kind of assay: Inhibition of HIV replication (NL-RLuc virus, luciferase readout in MT-2 cells). It is filed as cell-based. To be noted: Human immunodeficiency virus 1, MT2, 120 h, MT-2 cells infected with NL-RLuc virus, 5 days of incubation, 10% FBS, at least 2 experiments. In short, it runs like this:
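MT-2 cells infected with NL4-3-derived virus carrying Renilla luciferase in place of part of nef, grown 5 days with serial compound dilutions in RPMI 1640/10% FBS. Virus growth read as luciferase expression. EC50 from median effect equation, at least 2 experiments.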
For `CC1(C)CCN(c2c(-c3ccc(OCCc4ccc(F)cc4)cc3)c(CO)nc(Cl)c2[C@H](OC(C)(C)C)C(=O)O)CC1` [Example 212, (S)-2-(tert-Butoxy)-2-(2-chloro-4-(4,4-dimethylpiperidin-1-yl)-5-(4-(4-fluorophenethoxy)phenyl)-6-(hydroxymethyl)pyridin-3-yl)acetic acid], the EC50 was determined as 0.3 nM. For `Cc1ncc(-c2ccc(OCc3ccc(Cl)cc3)cn2)c(N2CCC(C)(C)CC2)c1[C@H](OC(C)(C)C)C(=O)O` [Example 338, (2S)-2-(tert-butoxy)-2-{5-[(4-chlorophenyl)methoxy]-4′-(4,4-dimethylpiperidin-1-yl)-6′-methyl-[2,3′-bipyridine]-5′-yl}acetic acid] the value was 1 nM; for `Cc1ncc(-c2cnc(OCC(C)C)c(Cl)c2)c(N2CCC(C)(C)CC2)c1[C@H](OC(C)(C)C)C(=O)O` [Example 417, (S)-2-(tert-Butoxy)-2-(5′-chloro-4-(4,4-dimethylpiperidin-1-yl)-6′-isobutoxy-6-methyl-[3,3′-bipyridin]-5-yl)acetic acid], 12 nM; for `COc1c(F)cc(-c2c(CO)nc(C)c([C@H](OC(C)(C)C)C(=O)O)c2N2CCC(C)(C)CC2)cc1F` [Example 139, (S)-2-(tert-Butoxy)-2-(5-(3,5-difluoro-4-methoxyphenyl)-4-(4,4-dimethylpiperidin-1-yl)-6-(hydroxymethyl)-2-methylpyridin-3-yl)acetic acid], 27 nM.

In turn, `Cc1nc(Nc2ccc(C#N)cn2)c(-c2ccc(OCCc3ccc(F)cc3)cc2)c(N2CCC(C)(C)CC2)c1[C@H](OC(C)(C)C)C(=O)O` [Example 109, (S)-2-(tert-Butoxy)-2-(6-((5-cyanopyridin-2-yl)amino)-4-(4,4-dimethylpiperidin-1-yl)-5-(4-(4-fluorophenethoxy)phenyl)-2-methylpyridin-3-yl)acetic acid] showed a concentration for a half-maximal effect (EC50) of 13 nM.

In turn, `Cc1ncc(-c2ccc(CNc3ncnc4c3oc3ccccc34)cc2)c(N2CCC(C)(C)CC2)c1[C@H](OC(C)(C)C)C(=O)O` [Example 21, (2S)-2-(tert-Butoxy)-2-[4-(4,4-dimethylpiperidin-1-yl)-2-methyl-5-{4-[({8-oxa-3,5-diazatricyclo[7.4.0.0^2,7]trideca-1(9), 2(7), 3,5,10, 12-hexaen-6-yl}amino)methyl]phenyl}pyridin-3-yl]acetic acid] showed an EC50 of 2 nM. For `Cc1nc(Nc2cncnc2)c(-c2ccc(OCCc3ccc(F)cc3)cc2)c(N2CCC(C)(C)CC2)c1[C@H](OC(C)(C)C)C(=O)O` [Example 66, (S)-2-(tert-Butoxy)-2-(4-(4,4-dimethylpiperidin-1-yl)-5-(4-(4-fluorophenethoxy)phenyl)-2-methyl-6-(pyrimidin-5-ylamino)pyridin-3-yl)acetic acid] the value was 2 nM; for `CC1(C)CCN(c2c(-c3ccc(OCCc4ccc(F)cc4)cc3)cncc2[C@H](OC(C)(C)C)C(=O)O)CC1` [Example 200, (S)-2-(tert-Butoxy)-2-(4-(4,4-dimethylpiperidin-1-yl)-5-(4-(4-fluorophenethoxy)phenyl)pyridin-3-yl)acetic acid], 2 nM; for `Cc1nc(CNC(=O)OC(C)(C)C)c(-c2ccc(OCCc3ccc(F)cc3)cc2)c(N2CCC(C)(C)CC2)c1[C@H](OC(C)(C)C)C(=O)O` [Example 23, (S)-2-(tert-Butoxy)-2-(6-(((tert-butoxycarbonyl)amino)methyl)-4-(4,4-dimethylpiperidin-1-yl)-5-(4-(4-fluorophenethoxy)phenyl)-2-methylpyridin-3-yl)acetic acid], 2 nM.

The molecule `Cc1ncc(-c2cnc(OCC(C)(C)c3ccccc3)c(F)c2)c(N2CCC(C)(C)CC2)c1[C@H](OC(C)(C)C)C(=O)O` [Example 402, (2S)-2-(tert-butoxy)-2-[4-(4,4-dimethylpiperidin-1-yl)-5′-fluoro-6-methyl-6′-(2-methyl-2-phenylpropoxy)-[3,3′-bipyridine]-5-yl]acetic acid] came in with an EC50 of 3 nM. This EC50 is about 1.5-fold higher than that of the molecule before.

One may read the EC50 as the concentration needed to bring the measured effect to its halfway point. The low end stands for higher potency in that assay, the high end for lower potency in that assay.
